Experimental data from the supplement of paper PMC10307832.

Columns and labels:
Assay in all cases: relative viability (nuclei count vs DMSO), 5 days (fraction); higher = more cells survive
[1] = compound: CN[C@@H]1C[C@H]2O[C@@](C)([C@@H]1OC)n1c3ccccc3c3c4c(c5c6ccccc6n2c5c31)C(=O)NC4 [Staurosporine] + CCNC(=O)c1noc(-c2cc(C(C)C)c(O)cc2O)c1-c1ccc(CN2CCOCC2)cc1 [Luminespib] (partner 0.01 µM)
Outline: (§1)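 The day after seeding in 1536-well plates, lung cancer cell lines were treated by pin tool with a single drug, or with a fixed anchor-drug dose together with five library-drug doses (not always all listed) in √10 steps. After 5 days, a combined fix-and-stain solution (final 0.05% Triton X-100, 1% formaldehyde, 1 ug/ml Hoechst) was added. Nuclei counted on 4× images gave relative viability as treated counts over vehicle counts, reported as the median of duplicate plates.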

Sulindac + Trametinib = compound: CC1=C(CC(=O)O)c2cc(F)ccc2/C1=C\c1ccc([S+](C)[O-])cc1 [Sulindac] + CC(=O)Nc1cccc(-n2c(=O)n(C3CC3)c(=O)c3c(Nc4ccc(I)cc4F)n(C)c(=O)c(C)c32)c1 [Trametinib] (partner 0.02 µM)
Outline: as §1

Sulindac + Pemetrexed = compound: CC1=C(CC(=O)O)c2cc(F)ccc2/C1=C\c1ccc([S+](C)[O-])cc1 [Sulindac] + Nc1nc2[nH]cc(CCc3ccc(C(=O)N[C@@H](CCC(=O)O)C(=O)O)cc3)c2c(=O)[nH]1 [Pemetrexed] (partner 0.2 µM)
Outline: as §1

Staurosporine + AZD7762 = compound: CN[C@@H]1C[C@H]2O[C@@](C)([C@@H]1OC)n1c3ccccc3c3c4c(c5c6ccccc6n2c5c31)C(=O)NC4 [Staurosporine] + NC(=O)Nc1cc(-c2cccc(F)c2)sc1C(=O)N[C@H]1CCCNC1 [AZD7762] (partner 0.2 µM)
Outline: as §1

Cell Line	relative viability ([1]; first compound 0.005 µM)	relative viability ([1]; first compound 0.01581 µM)	relative viability ([1]; first compound 0.05 µM)	relative viability ([1]; first compound 0.1581 µM)	relative viability ([1]; first compound 0.5 µM)	relative viability (Sulindac + Trametinib; first compound 0.08 µM)	relative viability (Sulindac + Trametinib; first compound 0.253 µM)	relative viability (Sulindac + Trametinib; first compound 0.8 µM)	relative viability (Sulindac + Trametinib; first compound 2.53 µM)	relative viability (Sulindac + Trametinib; first compound 8 µM)	relative viability (Sulindac + Pemetrexed; first compound 0.08 µM)	relative viability (Sulindac + Pemetrexed; first compound 0.253 µM)	relative viability (Sulindac + Pemetrexed; first compound 0.8 µM)	relative viability (Sulindac + Pemetrexed; first compound 2.53 µM)	relative viability (Sulindac + Pemetrexed; first compound 8 µM)	relative viability (Staurosporine + AZD7762; first compound 0.005 µM)	relative viability (Staurosporine + AZD7762; first compound 0.01581 µM)	relative viability (Staurosporine + AZD7762; first compound 0.05 µM)	relative viability (Staurosporine + AZD7762; first compound 0.1581 µM)	relative viability (Staurosporine + AZD7762; first compound 0.5 µM)
SW 1573	0.096	0.0703	0.091	0.0676	0.0574	0.601	0.645	0.496	0.371	0.75	0.91	0.887	0.737	0.754	0.9					
NCI-H1648						0.379	0.414		0.473	0.422	0.889	0.781		0.569	0.787	0.611	0.409	0.373	0.412	0.388
NCI-H1623	0.55	0.531	0.401	0.419	0.296															
NCI-H1666	0.758	0.582	0.604	0.38	0.279	0.895	0.889	0.775	0.924	0.93	0.924	0.852	0.818	0.858	0.878	0.701	0.51	0.524	0.404	0.32
NCI-H2087	0.151	0.139	0.112	0.112	0.0949	0.217	0.205	0.158	0.207	0.224	0.748	0.666	0.741	0.658	0.685	1.3		0.681	0.207	0.0787
NCI-H596	1.19	0.719	0.509	0.237	0.3	0.892	0.827		0.981	0.875	0.441	0.433		0.445	0.544	1.08	0.769	0.471	0.28	0.303
LCLC-103H	0.8	0.369	0.157	0.18	0.177	0.715	0.722	0.692	0.67	0.694	0.458	0.45	0.505	0.44	0.491	0.827	0.41	0.334	0.231	0.194
NCI-H1563	0.54	0.481	0.504	0.446	0.408						0.736	0.748	0.683	0.758	0.945					
COR-L23	0.262	0.324	0.083	0.0871	0.0485	0.653	0.671	0.357	0.548	0.725	0.177	0.202	0.206	0.192	0.204					
NCI-H520	0.194	0.309	0.233	0.212	0.185	0.787	0.707	0.642	0.691	0.699	0.893	0.613	0.488	0.642	0.813					
NCI-H661	0.986	0.707	0.604	0.436	0.211	0.635	0.608	0.487	0.669	0.654	0.953	0.931	0.869	0.922	0.981					
NCI-H2009	0.357	0.271	0.17	0.114	0.149	0.256	0.266	0.283	0.245	0.33	1.07	1.02	1.03	1.01	1.25					
HCC-78						0.844	0.865	0.647	0.81	0.824	0.923	0.878	0.751	0.924	0.953	0.674	0.463	0.438	0.375	0.326
NCI-H727	0.291	0.373	0.252	0.223	0.183	0.362	0.414	0.378	0.417	0.35						0.622	0.412	0.55	0.466	0.461
SK-MES-1		0.204	0.121	0.149	0.124	0.563	0.555	0.538	0.561	0.579	1.12	0.99	1.03	1.03	1.06					
NCI-H1703																0.121	0.0954	0.107	0.083	0.118
NCI-H2023	0.343	0.228	0.109	0.088	0.045	0.62	0.543	0.427	0.493	0.716	0.267	0.226	0.186	0.196	0.244					
ABC-1	0.261	0.274	0.147	0.156	0.0847											0.3	0.496	0.393	0.642	0.0806
